PubChem BioAssay (NCI)
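Grown in 96-well plates, cells were treated for 48 hours with each compound at five concentrations. Insufficient inhibition: endpoint recorded as highest concentration tested. GI50: concentration for 50% inhibition of growth. At the TGI there is no net growth.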

Experiments:
Experiment in all cases: NCI anticancer screen, dose series, 48 h
OVCAR-3 ovarian = tested on: OVCAR-3 ovarian
KM12 colon = tested on: KM12 colon
U251 CNS = tested on: U251 CNS
SW-620 colon = tested on: SW-620 colon
MDA-MB-435 = tested on: MDA-MB-435
NCI/ADR-RES ovarian = tested on: NCI/ADR-RES ovarian
RPMI-8226 leukemia = tested on: RPMI-8226 leukemia
BT-549 breast = tested on: BT-549 breast
SNB-75 CNS = tested on: SNB-75 CNS
PC-3 prostate = tested on: PC-3 prostate
K-562 leukemia = tested on: K-562 leukemia
HS 578T breast = tested on: HS 578T breast
LOX IMVI melanoma = tested on: LOX IMVI melanoma
SK-MEL-2 melanoma = tested on: SK-MEL-2 melanoma
MDA-MB-468 breast = tested on: MDA-MB-468 breast
SF-295 CNS = tested on: SF-295 CNS
MOLT-4 leukemia = tested on: MOLT-4 leukemia
SN12C renal = tested on: SN12C renal
HT29 colon = tested on: HT29 colon
HCT-116 colon = tested on: HCT-116 colon
EKVX NSCLC = tested on: EKVX NSCLC
SK-OV-3 ovarian = tested on: SK-OV-3 ovarian
UACC-257 melanoma = tested on: UACC-257 melanoma
M14 melanoma = tested on: M14 melanoma
NCI-H460 lung = tested on: NCI-H460 lung
MCF7 breast = tested on: MCF7 breast
HOP-92 NSCLC = tested on: HOP-92 NSCLC
COLO 205 colon = tested on: COLO 205 colon
NCI-H23 lung = tested on: NCI-H23 lung
HOP-62 NSCLC = tested on: HOP-62 NSCLC
DU-145 prostate = tested on: DU-145 prostate
SR leukemia = tested on: SR leukemia
CCRF-CEM leukemia = tested on: CCRF-CEM leukemia
SF-539 CNS = tested on: SF-539 CNS
IGROV1 ovarian = tested on: IGROV1 ovarian
T-47D breast = tested on: T-47D breast
HL-60(TB) leukemia = tested on: HL-60(TB) leukemia
SNB-19 CNS = tested on: SNB-19 CNS
786-0 renal = tested on: 786-0 renal
OVCAR-4 ovarian = tested on: OVCAR-4 ovarian
SK-MEL-28 melanoma = tested on: SK-MEL-28 melanoma
UACC-62 melanoma = tested on: UACC-62 melanoma
SK-MEL-5 melanoma = tested on: SK-MEL-5 melanoma
A498 renal = tested on: A498 renal
ACHN renal = tested on: ACHN renal
RXF 393 renal = tested on: RXF 393 renal
CAKI-1 renal = tested on: CAKI-1 renal
MDA-MB-231 breast = tested on: MDA-MB-231 breast
OVCAR-5 ovarian = tested on: OVCAR-5 ovarian
HCT-15 colon = tested on: HCT-15 colon
TK-10 renal = tested on: TK-10 renal
SF-268 CNS = tested on: SF-268 CNS
A549 NSCLC = tested on: A549 NSCLC
MALME-3M melanoma = tested on: MALME-3M melanoma
NCI-H522 lung = tested on: NCI-H522 lung
HCC-2998 colon = tested on: HCC-2998 colon
OVCAR-8 ovarian = tested on: OVCAR-8 ovarian
UO-31 renal = tested on: UO-31 renal
NCI-H226 lung = tested on: NCI-H226 lung

For `Nc1nnc(-c2c[nH]c3ncc(Br)cc23)c(-c2c[nH]c3ccc(Br)cc23)n1`, the GI50 (OVCAR-3 ovarian) was 3 µM, the TGI (OVCAR-3 ovarian) was 12.7 µM and the GI50 (KM12 colon) was 6.18 µM. It also gave a TGI (KM12 colon) of 23.6 µM, a GI50 (U251 CNS) of 10.1 µM and a TGI (U251 CNS) of 29.7 µM. The GI50 (SW-620 colon) was 5.32 µM, the TGI (SW-620 colon) was 27.2 µM and the GI50 (MDA-MB-435) was 0.379 µM. For the same compound, the TGI (MDA-MB-435) was 16.1 µM, the GI50 (NCI/ADR-RES ovarian) was 13.4 µM and the TGI (NCI/ADR-RES ovarian) was 36.4 µM. The GI50 (RPMI-8226 leukemia) was 4.68 µM, the TGI (RPMI-8226 leukemia) was 50.4 µM and the GI50 (BT-549 breast) was 2.71 µM. It also gave a TGI (BT-549 breast) of 12 µM, a GI50 (SNB-75 CNS) of 1.56 µM and a TGI (SNB-75 CNS) of 8.26 µM. The GI50 (PC-3 prostate) was 3.6 µM, the TGI (PC-3 prostate) was 22.4 µM and the GI50 (K-562 leukemia) was 0.497 µM. For the same compound, the TGI (K-562 leukemia) was 16.8 µM, the GI50 (HS 578T breast) was 4.47 µM and the TGI (HS 578T breast) was 28.8 µM. The GI50 (LOX IMVI melanoma) was 5.39 µM, the TGI (LOX IMVI melanoma) was 23.3 µM and the GI50 (SK-MEL-2 melanoma) was 6.31 µM. For the same compound, the TGI (SK-MEL-2 melanoma) was 23.1 µM, the GI50 (MDA-MB-468 breast) was 1.57 µM and the TGI (MDA-MB-468 breast) was 8.83 µM. The GI50 (SF-295 CNS) was 5.4 µM, the TGI (SF-295 CNS) was 20.8 µM and the GI50 (MOLT-4 leukemia) was 1.89 µM. The TGI (MOLT-4 leukemia) was 12.7 µM, the GI50 (SN12C renal) was 7.31 µM and the TGI (SN12C renal) was 23.6 µM. For the same compound, the GI50 (HT29 colon) was 5.74 µM, the TGI (HT29 colon) was 26 µM and the GI50 (HCT-116 colon) was 3.82 µM. For the same compound, the TGI (HCT-116 colon) was 18.9 µM, the GI50 (EKVX NSCLC) was 10.2 µM and the TGI (EKVX NSCLC) was 26.3 µM. The GI50 (SK-OV-3 ovarian) was 10.6 µM, the TGI (SK-OV-3 ovarian) was 24.4 µM and the GI50 (UACC-257 melanoma) was 12.4 µM. The TGI (UACC-257 melanoma) was 29.7 µM, the GI50 (M14 melanoma) was 4.67 µM and the TGI (M14 melanoma) was 22.2 µM. The GI50 (NCI-H460 lung) was 5.14 µM, the TGI (NCI-H460 lung) was 24.4 µM and the GI50 (MCF7 breast) was 0.92 µM. For the same compound, the TGI (MCF7 breast) was 18.5 µM, the GI50 (HOP-92 NSCLC) was 4.06 µM and the TGI (HOP-92 NSCLC) was 24.3 µM. It also gave a GI50 (COLO 205 colon) of 3.35 µM, a TGI (COLO 205 colon) of 14.9 µM and a GI50 (NCI-H23 lung) of 11.3 µM. For the same compound, the TGI (NCI-H23 lung) was 26.2 µM, the GI50 (HOP-62 NSCLC) was 5.26 µM and the TGI (HOP-62 NSCLC) was 20.2 µM. The GI50 (DU-145 prostate) was 7.24 µM, the TGI (DU-145 prostate) was 21.1 µM and the GI50 (SR leukemia) was 0.378 µM. For the same compound, the TGI (SR leukemia) was 14.8 µM, the GI50 (CCRF-CEM leukemia) was 2.33 µM and the TGI (CCRF-CEM leukemia) was > 100 µM. For the same compound, the GI50 (SF-539 CNS) was 3.48 µM, the TGI (SF-539 CNS) was 17.2 µM and the GI50 (IGROV1 ovarian) was 6.29 µM. The TGI (IGROV1 ovarian) was 24.4 µM, the GI50 (T-47D breast) was 4.16 µM and the TGI (T-47D breast) was 26.2 µM. For the same compound, the GI50 (HL-60(TB) leukemia) was 1.99 µM, the TGI (HL-60(TB) leukemia) was 16.3 µM and the GI50 (SNB-19 CNS) was 10.9 µM. The TGI (SNB-19 CNS) was 33.7 µM, the GI50 (786-0 renal) was 8.24 µM and the TGI (786-0 renal) was 23.2 µM. The GI50 (OVCAR-4 ovarian) was 5.78 µM, the TGI (OVCAR-4 ovarian) was 21.7 µM and the GI50 (SK-MEL-28 melanoma) was 10.5 µM. For the same compound, the TGI (SK-MEL-28 melanoma) was 24.4 µM, the GI50 (UACC-62 melanoma) was 3.79 µM and the TGI (UACC-62 melanoma) was 18.8 µM. The GI50 (SK-MEL-5 melanoma) was 3.06 µM, the TGI (SK-MEL-5 melanoma) was 13.9 µM and the GI50 (A498 renal) was 13.7 µM. The TGI (A498 renal) was 29 µM, the GI50 (ACHN renal) was 6.04 µM and the TGI (ACHN renal) was 19.6 µM. The GI50 (RXF 393 renal) was 1.78 µM, the TGI (RXF 393 renal) was 7.03 µM and the GI50 (CAKI-1 renal) was 4.02 µM. The TGI (CAKI-1 renal) was 17.9 µM, the GI50 (MDA-MB-231 breast) was 13.1 µM and the TGI (MDA-MB-231 breast) was 32.5 µM. The GI50 (OVCAR-5 ovarian) was 10.8 µM, the TGI (OVCAR-5 ovarian) was 27.3 µM and the GI50 (HCT-15 colon) was 4.41 µM. It also gave a TGI (HCT-15 colon) of 19.1 µM, a GI50 (TK-10 renal) of 15.1 µM and a TGI (TK-10 renal) of 33.5 µM. It also gave a GI50 (SF-268 CNS) of 8.72 µM, a TGI (SF-268 CNS) of 34 µM and a GI50 (A549 NSCLC) of 10.9 µM. For the same compound, the TGI (A549 NSCLC) was 44.5 µM, the GI50 (MALME-3M melanoma) was 4.61 µM and the TGI (MALME-3M melanoma) was 25.8 µM. The GI50 (NCI-H522 lung) was 0.403 µM, the TGI (NCI-H522 lung) was 15.3 µM and the GI50 (HCC-2998 colon) was 14 µM. For the same compound, the TGI (HCC-2998 colon) was 28.9 µM, the GI50 (OVCAR-8 ovarian) was 10.4 µM and the TGI (OVCAR-8 ovarian) was 30.4 µM. It also gave a GI50 (UO-31 renal) of 4.58 µM, a TGI (UO-31 renal) of 20.7 µM and a GI50 (NCI-H226 lung) of 3.77 µM. For the same compound, the TGI (NCI-H226 lung) was 26.9 µM.
